Test results: US7442529B2, “Fluorescent probes for biological studies” (Massachusetts Institute of Technology, priority 2005, dated 2008)
Where a name gives a salt, the structure may show the parent alone. Non-standard residues stand in square brackets, D forms with d. Residues, ends and D or L forms follow the SMILES beside them. Dap(6-DMN) = CN(C)c1ccc2cc3c(cc2c1)C(=O)N(C[C@H](N)C(=O)O)C3=O; pY = N[C@@H](Cc1ccc(OP(=O)(O)O)cc1)C(=O)O

How the values were obtained:
[1] = in 0.1 M H2SO4; Melhuish 1961; cited from earlier work
[2] = molecular target: GST-Crk SH2 (Homo sapiens, UniProt P46108); test: Fluorescence titration of peptides with GST-Crk SH2, determination of Kd; assay type: binding; design: Human Crk SH2 domain was expressed as a GST fusion protein; made in house; host or cells: E. coli NB42
Procedure: (§1) The peptides of Table 1 were incubated with targeted and nontargeted SH2 domains. The binding of peptides Crk-bp, Crk-bp2, Abl-bp, and Abl-bp2 to SH2 target domains can be studied by fluorescence titration as shown in FIGS. 1-4.
(§2) Fluorescence titrations of Crk-bp and Crk-bp2 with targeted GST-Crk SH2 are shown in FIG. 1 (a) and (b), respectively. Fluorescence titrations of Crk-bp and Crk-bp2 with non-targeted GST-Abl SH2 are shown in FIG. 4 (a) and (b), respectively.
(§3) Peptide stock solutions of known concentration (determined by UV absorbance at 388 nm, E=7980 M−1 cm−1) were used to prepare 5 μM peptide concentration samples in buffered water (150 μL total volume, 100 mM NaCl, 10 mM sodium phosphate, pH 7.5). 2 μL aliquots of the corresponding stock protein solution (GST-Crk SH2, GST-Abl SH2 or GST-PI3K SH2, concentration determined by Bio-Rad Protein Assay) were consecutively added, and fluorescence emission spectra were recorded 1 minute after each addition ([…], 2 nm excitation and emission slit width). The increase in emission intensity at the maximum emission wavelength was plotted against total protein concentration and fitted by least-square analysis assuming a 1 to 1 binding mode to obtain the apparent Kd.
Human Crk SH2 domain was expressed as a GST fusion protein transformed into E. coli NB42 strain. Expression of SH2 domains was carried out following reported conditions. […]

[3] = Photophysical properties: UV absorbance, fluorescence emission and quantum yield in different solvents; assay type: physicochemical; conditions: for quantum yield (Φ): vs. quinine sulfate standard
Procedure: Quantum yields (Φ) were measured by comparison with a standard, which emits in a similar region to the test sample. From the available standard compounds quinine sulfate in 0.1 M H2SO4 (Φ=0.54) was selected.
UV absorbance at the excitation wavelength (375 nm), and fluorescence emission spectra of a series of solutions of the standard and compound were recorded. Solutions were prepared with different absorbances, ranging from 0 (solvent blank) to 0.1. A series of graphs of integrated fluorescence vs. absorbance were obtained. The data were fitted to a linear equation with gradient (grad), and intercept=0. See FIG. 5 as an example of the plots obtained.
The gradients of graphs in FIG. 5 are proportional to the quantum yield of the different samples. Absolute values were calculated using the standard sample, which has a fixed and known fluorescence quantum yield value, according to the following equation: […]
Where the subscripts std and x denote standard and test respectively. The value Φ is the fluorescence quantum yield, grad is the gradient (grad) from the plot of integrated fluorescence intensity vs. absorbance, and η the refractive index of the solvent.
The UV absorbance spectra (40 μM in methanol) and fluorescence emission spectra of compound (VIII), 6DMN-GlyOMe are shown in FIG. 6 and tabulated in Table 4. The UV spectrum of 6DMN-GlyOMe has an intense absorption band at 378 nm which is not found in unsubstituted 2,3-naphthalimides. The maximum excitation wavelength of 6DMN-GlyOMe is at 375 nm.
Quantum yields (Φ) were measured in the solvents listed in Table 2 by comparison with a standard, which emits in a similar region to 6DMN-GlyOMe. Quinine sulfate in 0.1 M H2SO4 (Φ=0.54) was used as the standard. (Melhuish, W. B. J. Phys. Chem., 1961, 65, 229-235). Solutions were prepared at different concentrations such that the absorbance measurements ranged between 0 and 0.1 at and above the excitation wavelength to avoid non-linear effects.
UV absorbance at the excitation wavelength (375 nm), and fluorescence emission spectra of a series of solutions of the standard and 6DMN-GlyOMe were recorded. A series of graphs of integrated fluorescence vs. absorbance were obtained. The data were fitted to a linear equation with gradient (grad), and intercept=0. The gradient (grad) is proportional to the quantum yield of the sample. Absolute values were calculated using the standard sample, which has a fixed and known fluorescence quantum yield value, according to the equation above.

[4] = Lippert-Mataga plot: Stokes shift vs. orientation polarizability; assay type: physicochemical; conditions: from Stokes shift in 1,4-dioxane/acetonitrile mixtures
Excerpt: This can be estimated from a Lippert-Mataga plot, which is essentially a plot of the Stokes shift of the fluorescence emission versus the solvent polarity. (Lippert, V. E. Z. Elektrochem. 1957, 61, 962-975; Mataga, N.; Kaifu, Y.; Koizumi, M. Bull. Chem. Soc. Jpn. 1956, 29, 465-470.)
The difference (Δ v) in the maximum absorption ( vA) and emission wavelengths ( vF), known as the Stokes shift and expressed in wavenumbers, is plotted vs. Δf. The term Δf is called the orientation polarizability and can be calculated according to the following equation:
[formula] where ε is the solvent dielectric constant and n is the solvent refraction index.
The term Δf can also be calculated for a mixture of solvents. […] In this case, Δf is obtained for each mixture using ε and n values calculated using the molar fractions (χ) in the equation as follow: ε=(χacetonitrile)(38.8)+(χdiox)(2.218) (3) n=(χacetonitrile)(1.3442)+(χdiox)(1.4224) (4) where χacetonitrile+χdiox=1.
The relationship between Δ v and Δf is expressed by the following equation:
[formula] where c is the velocity of light, h is Plank's constant, μe−μg is the difference between the dipole moments of the excited and the ground states respectively (Δμ), and α0 is the radius of the Onsager cavity around the compound.

[5] = molecular target: T1, GST-Abl SH2 (Homo sapiens, UniProt P00519); test: Fluorescence titration of peptides with GST-Abl SH2, determination of Kd; assay type: binding
T1 construct: The SH2 domain was cloned using BamH1 (5′) EcoR1 (3′) sites; made in house; host or cells: E. coli (plasmid received from elsewhere; strain not clearly stated for Abl)
T1 sequence (P00519 127-217 limits assumed): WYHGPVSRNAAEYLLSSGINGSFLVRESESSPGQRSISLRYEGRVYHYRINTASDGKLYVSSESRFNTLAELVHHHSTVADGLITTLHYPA
Procedure: as §1
Fluorescence titrations of Abl-bp with non-targeted GST-PI3K SH2 and […] are shown in FIG. 2 (b) and 4 (c), respectively. The relative fluorescence emission intensities for the Abl-bp peptide and aforementioned SH2 domain titrations are shown in FIG. 2 (c).
Fluorescence titrations Abl-bp2 with non-targeted GST-PI3K SH2 and GST-Crk SH2 are shown in FIGS. 3 (b) and 4 (d), respectively. The relative fluorescence emission intensities for the Abl-bp2 peptide and aforementioned SH2 domain titrations are shown in FIG. 3 (c).
as §3
Abl-SH2 was received as a GST fusion in a pGEX-KT vector, amp-resistant, IPTG-inducible. The SH2 domain was cloned using BamH1 (5′) EcoR1 (3′) sites.

[6] = tested on: GST-PI3K SH2; test: Fluorescence titration of peptides with GST-PI3K SH2 (non-target domain); assay type: binding; conditions: peptide saturated with GST-PI3K SH2, 565 nm (FIG. 1c)
Procedure: as §1, §2
Peptide stock solutions of known concentration (determined by UV absorbance at 388 nm, E=7980 M−1 cm−1) were used to prepare 5 μM peptide concentration samples in buffered water (150 μL total volume, 100 mM NaCl, 10 mM sodium phosphate, pH 7.5). 2 μL aliquots of the corresponding stock protein solution (GST-Crk SH2, GST-Abl SH2 or GST-PI3K SH2, concentration determined by Bio-Rad Protein Assay) were consecutively added, and fluorescence emission spectra were recorded 1 minute after each addition (excitation 395 nm, 2 nm excitation and emission slit width). […]
Src and PI3K SH2 domains were expressed and purified as GST fusion following reported procedures. […] Proteins were quantified using the Micro BCA protein Assay Kit (Pierce) relative to a BSA standard. All fusion proteins were analyzed by Coomasie staining and Western analysis with anti-GST antibodies.

## C=C[C@H]1C[N@@]2CC[C@H]1C[C@H]2[C@H](O)c1ccnc2ccc(OC)cc12 [quinine sulfate]
[1]
  quantum yield (Φ) of the standard: 0.54

## CC[C@H](C)[C@H](NC(=O)[C@H](CC(N)=O)NC(=O)[C@@H]1CCCN1C(=O)[C@H](Cc1c[nH]cn1)NC(=O)[C@H](CC(=O)O)NC(=O)[C@H](Cc1ccc(OP(=O)(O)O)cc1)NC(=O)[C@H](CCC(N)=O)NC(=O)[C@H](CN1C(=O)c2cc3ccc(N(C)C)cc3cc2C1=O)NC(=O)[C@H](CCC(=O)O)NC(C)=O)C(N)=O [Crk-bp, Ac-Glu-Dap(6DMN)-Gln-pTyr-Asp-His-Pro-Asn-Ile-(CONH2) (SEQ ID NO: 1)] (Ac-E[Dap(6-DMN)]Q[pY]DHPNI-NH2)
[2]
  Kd: 4.8 ± 2 µM
[2]; target Crk SH2, excitation 375 nm, emission 565 nm
  Fluorescence increase: 500%^b

## COC(=O)CN1C(=O)c2cc3ccc(N(C)C)cc3cc2C1=O [Peptide 6DMN-GlyOMe]
[3]
  maximum excitation wavelength: 375 nm
[3]; 40 μM in methanol
  intense absorption band of the UV spectrum: 378 nm
[3]; 1,4-dioxane
  absorbance maximum: 372 nm
  emission maximum: 498 nm
  quantum yield (Φ): 0.220
[3]; 2-propanol
  absorbance maximum: 385 nm
  emission maximum: 589 nm
  quantum yield (Φ): 0.018
[3]; DMF
  absorbance maximum: 380 nm
  emission maximum: 545 nm
  quantum yield (Φ): 0.155
[3]; acetone
  absorbance maximum: 375 nm
  emission maximum: 532 nm
  quantum yield (Φ): 0.148
[3]; acetonitrile
  absorbance maximum: 380 nm
  emission maximum: 549 nm
  quantum yield (Φ): 0.135
[3]; chloroform
  absorbance maximum: 380 nm
  emission maximum: 509 nm
  quantum yield (Φ): 0.225
[3]; dichloromethane
  absorbance maximum: 379 nm
  emission maximum: 517 nm
  quantum yield (Φ): 0.210
[3]; ethanol
  absorbance maximum: 379 nm
  emission maximum: 584 nm
  quantum yield (Φ): 0.027
[3]; methanol
  absorbance maximum: 382 nm
  emission maximum: 589 nm
  quantum yield (Φ): 0.012
[3]; tetrahydrofuran
  absorbance maximum: 373 nm
  emission maximum: 510 nm
  quantum yield (Φ): 0.147
[3]; toluene
  absorbance maximum: 373 nm
  emission maximum: 491 nm
  quantum yield (Φ): 0.208
[3]; water
  absorbance maximum: 388 nm
  emission maximum: 592 nm
[4]
  increase in the dipole moment between ground and excited state: 5.5 D

## Ac-Dap(6DMN)-Gln-pTyr-Glu-Asn-Val-Gln-Ser-(CONH2) (SEQ OD NO: 7) [Abl-bp2]
[5]; target Abl SH2, 20 μM in PBS buffer, pH 7.5
  Kd: 12 ± 2 µM

## CC[C@H](C)[C@H](NC(=O)[C@H](CC(N)=O)NC(=O)[C@@H]1CCCN1C(=O)[C@H](Cc1c[nH]cn1)NC(=O)[C@H](CC(=O)O)NC(=O)[C@H](Cc1ccc(OP(=O)(O)O)cc1)NC(=O)[C@H](CCC(N)=O)NC(=O)[C@H](CN1C(=O)c2cc3ccc(N(C)C)cc3cc2C1=O)NC(=O)CNC(C)=O)C(N)=O [Crk-bp2, Ac-Gly-Dap(6DMN)-Gln-pTyr-Asp-His-Pro-Asn-Ile-(CONH2) (SEQ ID NO: 5)] (Ac-G[Dap(6-DMN)]Q[pY]DHPNI-NH2)
[5]; peptide saturated with GST-Abl SH2, 565 nm (FIG. 1c)
  relative fluorescence emission intensity with non-target SH2 domain compared with targeted GST-Crk SH2: notably less
[6]
  relative fluorescence emission intensity with non-target SH2 domain compared with targeted GST-Crk SH2: notably less

## Ac-Gly-Dap(6DMN)-Gln-pTyr-Glu-Asn-Val-Gln-Ser-(CONH2) (SEQ ID NO: 6) (Ac-G[Dap(6DMN)]Q[pY]ENVQS-NH2) [Abl-bp]
[5]; target Abl SH2, excitation 375 nm, emission 599 nm
  Fluorescence increase: 400%^c
[3]; water, calculated using peptide Abl-bp
  quantum yield (Φ): 0.002
